Converted amounts (≈) assume the structure as drawn.
Legend:
mouse liver sialidase = details: cited from earlier work
[1] = biological target: recombinant NA-1 (H1N1 neuraminidase) (Influenza A virus, UniProt Q9IGQ6); test: biochemical
bacterial NA = details: cited from earlier work

Chain of recombinant NA-1 (H1N1 neuraminidase) (Q9IGQ6 whole entry, looked up): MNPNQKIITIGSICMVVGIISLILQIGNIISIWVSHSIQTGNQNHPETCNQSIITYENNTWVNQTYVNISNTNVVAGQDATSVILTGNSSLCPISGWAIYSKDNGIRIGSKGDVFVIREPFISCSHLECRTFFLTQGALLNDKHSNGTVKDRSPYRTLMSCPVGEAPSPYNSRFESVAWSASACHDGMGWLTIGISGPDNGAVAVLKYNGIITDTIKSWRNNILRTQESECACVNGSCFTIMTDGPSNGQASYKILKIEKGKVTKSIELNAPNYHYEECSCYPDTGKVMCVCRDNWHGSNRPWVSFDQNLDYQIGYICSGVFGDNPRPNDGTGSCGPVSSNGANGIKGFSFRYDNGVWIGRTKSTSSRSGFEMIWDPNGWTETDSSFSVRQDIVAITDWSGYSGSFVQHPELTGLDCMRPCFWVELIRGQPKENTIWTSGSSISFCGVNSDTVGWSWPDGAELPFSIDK

Row | SMILES | Inhibition of mouse liver sialidase (mouse liver sialidase) | IC10 on NA-1 activity [1] | IC50 [1] | IC50 on NA-1 activity [1] | Inhibition of bacterial NA activity (bacterial NA)
1 | COc1c(O[C@@H]2O[C@H](C(=O)O)[C@@H](O)[C@H](O)[C@H]2O)cc(O)c2c(=O)cc(-c3ccccc3)oc12 [Wogonoside] | inhibited | 19.6 ± 2.7 µg/mL (≈ 42.6 µM) | 405 µM | – | –
2 | COc1c(O)cc(O)c2c(=O)cc(-c3ccccc3)oc12 [Wogonin] | inhibited | 34.0 ± 5.1 µg/mL (≈ 120 µM) | 866 µM | – | –
3 | COc1c(O[C@@H]2O[C@H](C(=O)O)[C@@H](O)[C@H](O)[C@H]2O)cc2oc(-c3ccccc3)cc(=O)c2c1O [Oroxylin A 7-O-β-D-glucuronide] | – | 29.3 ± 7.8 µg/mL (≈ 63.6 µM) | 621 µM | – | –
4 | COc1cc2c(cc1O)C[C@H]1c3cc(O)c(OC)cc3CC[N@@+]1(C)C2 [Phellodendrine] | – | 23.1 ± 2.7 µg/mL | 599 µM | – | –
5 | O=C(O)[C@H]1O[C@@H](Oc2cc3oc(-c4ccccc4)cc(=O)c3c(O)c2O)[C@H](O)[C@@H](O)[C@@H]1O [Baicalin] | – | – | 1650 µM | – | –
6 | CCC(CC)[C@H](NC(C)=O)[C@@H]1[C@H](O)[C@@H](C(=O)O)C[C@H]1N=C(N)N [Peramivir, reference compound] | – | 64.8 ± 8.4 µg/mL (≈ 197 µM) | – | 478.8 ± 15.6 µg/mL (≈ 1460 µM) | –
7 | COc1cc2c(cc1OC)-c1cc3ccc4c(c3c[n+]1CC2)OCO4 [Epiberberine] | – | – | 99.9 µM | – | –
8 | COC(=O)C1=CO[C@@H](O[C@@H]2O[C@H](CO)[C@@H](O)[C@H](O)[C@H]2O)[C@@H]2C(CO)=CC[C@H]12 [Geniposide] | – | 2.8 ± 0.2 µg/mL (≈ 7.21 µM) | 87.5 µM | – | –
9 | COc1cc2c(cc1OC)-c1cc3ccc(OC)c(OC)c3c[n+]1CC2 [Palmatine] | – | 2.1 ± 0.1 µg/mL | 50.5 µM | – | inhibited
10 | O=c1cc(-c2ccccc2)oc2cc(O)c(O)c(O)c12 [Baicalein] | – | 75.0 ± 29.1 µg/mL (≈ 278 µM) | 590 µM | – | –
11 | c1c2c(cc3c1OCO3)-c1cc3ccc4c(c3c[n+]1CC2)OCO4 [Coptisine] | – | – | 327 µM | – | inhibited
12 | COc1cc2c(cc1O)CC[n+]1cc3c(OC)c(OC)ccc3cc1-2 [Jatrorrhizine] | – | 1.9 ± 0.1 µg/mL | 67.1 µM | – | inhibited
13 | COc1c(O)cc2oc(-c3ccccc3)cc(=O)c2c1O [Oroxylin A] | – | 5.1 ± 1.4 µg/mL (≈ 17.9 µM) | 202 µM | – | –
14 | COc1ccc2cc3[n+](cc2c1OC)CCc1cc2c(cc1-3)OCO2 [Berberine] | – | 3.1 ± 0.8 µg/mL | 234 µM | – | –

Reference: article PMC5686190 (Scientific Reports, 2017)
